From paper PMC2981508 (Science (New York, N.Y.), 2009)

How the values were obtained:
progesterone receptor = molecular target: T1, progesterone receptor (Homo sapiens, UniProt P06401); assay: in vitro fluorescence polarization binding assay
T1 sequence (P06401 1-933): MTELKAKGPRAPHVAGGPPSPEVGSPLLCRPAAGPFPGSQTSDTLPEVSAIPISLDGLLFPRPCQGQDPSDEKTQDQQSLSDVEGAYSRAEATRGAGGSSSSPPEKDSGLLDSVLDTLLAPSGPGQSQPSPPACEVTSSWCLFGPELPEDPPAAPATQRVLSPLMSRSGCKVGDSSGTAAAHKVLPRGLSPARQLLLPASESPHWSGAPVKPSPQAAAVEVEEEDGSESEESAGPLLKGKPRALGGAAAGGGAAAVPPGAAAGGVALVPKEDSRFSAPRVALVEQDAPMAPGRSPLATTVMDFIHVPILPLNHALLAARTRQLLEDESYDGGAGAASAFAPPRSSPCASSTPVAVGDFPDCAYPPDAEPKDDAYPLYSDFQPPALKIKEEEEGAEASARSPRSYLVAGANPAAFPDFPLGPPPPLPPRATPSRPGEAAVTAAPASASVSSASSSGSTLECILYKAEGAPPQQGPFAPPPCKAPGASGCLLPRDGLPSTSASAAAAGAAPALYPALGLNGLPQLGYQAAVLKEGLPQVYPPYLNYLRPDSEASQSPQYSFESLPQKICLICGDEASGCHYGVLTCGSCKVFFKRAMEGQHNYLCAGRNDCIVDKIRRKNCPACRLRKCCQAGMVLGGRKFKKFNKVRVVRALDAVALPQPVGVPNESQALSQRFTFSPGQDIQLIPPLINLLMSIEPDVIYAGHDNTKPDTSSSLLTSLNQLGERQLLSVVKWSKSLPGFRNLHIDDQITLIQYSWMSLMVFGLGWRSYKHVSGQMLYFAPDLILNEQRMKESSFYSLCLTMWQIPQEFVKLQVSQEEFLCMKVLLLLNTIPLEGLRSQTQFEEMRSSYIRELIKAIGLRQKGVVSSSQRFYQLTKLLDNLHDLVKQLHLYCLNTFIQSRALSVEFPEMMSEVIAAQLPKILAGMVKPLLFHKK

glucocorticoid receptor = molecular target: T2, glucocorticoid receptor (Homo sapiens, UniProt P04150); assay: in vitro fluorescence polarization binding assay
T2 sequence (P04150 1-777): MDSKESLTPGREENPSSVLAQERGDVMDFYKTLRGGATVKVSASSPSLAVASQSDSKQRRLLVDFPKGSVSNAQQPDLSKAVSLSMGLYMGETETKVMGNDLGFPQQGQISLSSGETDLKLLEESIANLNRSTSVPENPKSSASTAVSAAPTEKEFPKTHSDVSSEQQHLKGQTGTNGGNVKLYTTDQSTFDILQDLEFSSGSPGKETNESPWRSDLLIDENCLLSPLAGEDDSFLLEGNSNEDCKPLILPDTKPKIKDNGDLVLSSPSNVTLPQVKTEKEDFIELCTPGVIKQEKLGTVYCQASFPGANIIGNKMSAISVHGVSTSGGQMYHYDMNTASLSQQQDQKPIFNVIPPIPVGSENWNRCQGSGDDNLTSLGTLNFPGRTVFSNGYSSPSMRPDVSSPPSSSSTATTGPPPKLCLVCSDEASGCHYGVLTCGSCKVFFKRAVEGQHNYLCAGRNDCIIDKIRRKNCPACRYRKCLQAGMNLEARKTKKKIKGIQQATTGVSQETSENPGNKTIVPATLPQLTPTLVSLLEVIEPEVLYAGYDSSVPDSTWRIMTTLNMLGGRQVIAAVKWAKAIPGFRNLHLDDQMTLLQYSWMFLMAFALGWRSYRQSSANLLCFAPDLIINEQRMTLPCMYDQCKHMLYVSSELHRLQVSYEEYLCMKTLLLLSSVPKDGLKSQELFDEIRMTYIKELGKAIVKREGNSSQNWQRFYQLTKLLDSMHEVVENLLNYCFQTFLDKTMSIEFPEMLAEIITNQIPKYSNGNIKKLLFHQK

[1] = test system: PSA and TMPRSS2 in parental LNCaP cells; assay: Antagonism of R1881 induction of PSA and TMPRSS2 in parental LNCaP cells; type: cell-based, human
VCaP cells [2] = assay: VCaP cell proliferation; type: cell-based, human; conditions: 1 and 10 μM, media containing FBS
VCaP cells [3] = assay: VCaP apoptosis; type: cell-based, human; conditions: 10 μM, 1 or 3 days, PARP cleavage
[4] = test system: DU145 human prostate cancer cells; assay: Growth of AR-negative DU145 cells in vitro; type: cell-based
[5] = test system: DU145 prostate cancer xenografts; assay: AR-negative DU145 prostate cancer xenografts; design: species or system mice; conditions: mouse, in vivo
[6] = test system: AR recruitment to PSA enhancer and TMPRSS2 enhancer in LNCaP/AR cells; assay: Chromatin immunoprecipitation of AR in LNCaP/AR cells; type: cell-based, human
[7] = test system: AR recruitment to PSA enhancer and TMPRSS2 enhancer in parental LNCaP cells; assay: Chromatin immunoprecipitation of AR in parental LNCaP cells; type: cell-based, human
VP16-AR fusion protein = type: cell-based; conditions: Cos-7 cells, 24 hours
[8] = Pharmacokinetics of RD162 in mice
LNCaP/AR tumors = assay: LNCaP/AR xenograft model of CRPC in castrate male mice

## CNC(=O)c1ccc(N2C(=S)N(c3ccc(C#N)c(C(F)(F)F)c3)C(=O)C23CCC3)cc1F [RD162]
Progesterone receptor
  binding to progesterone receptor: little to no binding
Glucocorticoid receptor
  binding to glucocorticoid receptor: little to no binding
[1]
  Antagonism of induction of PSA and TMPRSS2 by R1881: antagonized induction
VCaP cells [2]
  Growth of VCaP cells: suppressed growth
VCaP cells [3]
  Apoptosis in VCaP cells: induced apoptosis
[4]
  Growth suppression in AR-negative DU145 cells: not observed
[5]
  growth of AR-negative DU145 xenografts: neither bicalutamide nor RD162 impaired the growth
[6]
  AR recruitment to PSA enhancer and TMPRSS2 enhancer: Neither RD162 nor MDV3100 recruited AR
[7]
  AR recruitment to PSA enhancer and TMPRSS2 enhancer: Neither RD162 nor MDV3100 recruited AR
VP16-AR fusion protein
  Activation of VP16-AR: neither RD162 nor MDV3100 activated VP16-AR
[8]
  bioavailable after oral delivery: ~50%
  serum half-life: about 30 hours
[8]; 24 hours after a single 20 mg/kg oral dose
  Trough levels: ~23 µM
LNCaP/AR tumors; 0.1 mg/kg
  antitumor activity: some slowing of tumor growth
LNCaP/AR tumors; 1 mg/kg
  antitumor activity: a few tumor regressions
LNCaP/AR tumors; 10 mg/kg oral daily, 28 days
  Tumors no longer palpable (of 12): three tumors
  Tumors regressed (12 tumors per group): all twelve tumors
  Tumors regressed by greater than 50 percent (of 12): nine tumors
LNCaP/AR tumors; continual 10 mg/kg oral daily treatment
  Median time to tumor progression: 186 days
